Measured values reported in US20130317045A1, “THIENOPYRIDINE AND THIENOPYRIMIDINE COMPOUNDS AND METHODS OF USE THEREOF” (AMBIT BIOSCIENCES CORPORATION, priority 2010, published 2013).
Like-named read-outs stand apart in the source and are kept apart here.

Assays:
JAK2 = target: T1, JAK2 (Homo sapiens, UniProt O60674); assay: Competition binding assay, JAK2
T1 construct: made in house
Description: (§1) Competition Binding Assay to Determine Binding Constants (Kd) of the Compounds Against JAK Kinases
(§2) Competition binding assays used herein were developed, validated and performed as described in Fabian et al., Nature Biotechnology 2005, 23,329-336. Kinases were produced as fusions to T7 phage (See, Fabian et al. or WO04/015142) or alternatively, the kinases were expressed in HEK-293 cells and subsequently tagged with DNA for PCR detection (See, WO08/005310). For the binding assays, streptavidin-coated magnetic beads were treated with biotinylated affinity ligands for 30 min at rt to generate affinity resins. The liganded beads were blocked with excess biotin and washed with blocking buffer (SeaBlock (Pierce), 1% BSA, 0.05% Tween 20, 1 mM DTT) to remove unbound ligand and to reduce non-specific binding. Binding reactions were assembled by combining kinase, liganded affinity beads, and test compounds in 1× binding buffer (20% SeaBlock, 0.17×PBS, 0.05% Tween 20, 6 mM DTT). Test compounds were prepared as 100× stocks in DMSO and rapidly diluted into the aqueous environment. DMSO was added to control assays lacking a test compound. Primary screen interactions were performed in polypropylene 384-well plates in a final volume of 34 μL, while Kd determinations were performed in polystyrene 96-well plates in a final volume of 135 μL. The assay plates were incubated at room temperature with shaking for 1 hour, long enough for binding reactions to reach equilibrium, and the affinity beads were washed extensively with wash buffer (1× PBS, 0.05% Tween 20) to remove unbound protein. The beads were then resuspended in elution buffer (1× PBS, 0.05% Tween 20, 2 μM non-biotinylated affinity ligand) and incubated at room temperature with shaking for 30 min. The kinase concentration in the eluates was measured by quantitative PCR. Each kinase was tested individually against each compound. Kds were determined using eleven serial threefold dilutions. A selectivity score, which is a quantitative measure of selectivity of a compound against a panel of enzymes, may be calculated for a compound by dividing the number of enzymes for which a compound meets a set criteria, (for example, a binding constant of 100 nM or less), by the total number of enzymes tested.

TYK2 = target: T2, TYK2 (Homo sapiens, UniProt P29597); assay: Competition binding assay, TYK2
T2 construct: made in house
T2 sequence (P29597 whole entry): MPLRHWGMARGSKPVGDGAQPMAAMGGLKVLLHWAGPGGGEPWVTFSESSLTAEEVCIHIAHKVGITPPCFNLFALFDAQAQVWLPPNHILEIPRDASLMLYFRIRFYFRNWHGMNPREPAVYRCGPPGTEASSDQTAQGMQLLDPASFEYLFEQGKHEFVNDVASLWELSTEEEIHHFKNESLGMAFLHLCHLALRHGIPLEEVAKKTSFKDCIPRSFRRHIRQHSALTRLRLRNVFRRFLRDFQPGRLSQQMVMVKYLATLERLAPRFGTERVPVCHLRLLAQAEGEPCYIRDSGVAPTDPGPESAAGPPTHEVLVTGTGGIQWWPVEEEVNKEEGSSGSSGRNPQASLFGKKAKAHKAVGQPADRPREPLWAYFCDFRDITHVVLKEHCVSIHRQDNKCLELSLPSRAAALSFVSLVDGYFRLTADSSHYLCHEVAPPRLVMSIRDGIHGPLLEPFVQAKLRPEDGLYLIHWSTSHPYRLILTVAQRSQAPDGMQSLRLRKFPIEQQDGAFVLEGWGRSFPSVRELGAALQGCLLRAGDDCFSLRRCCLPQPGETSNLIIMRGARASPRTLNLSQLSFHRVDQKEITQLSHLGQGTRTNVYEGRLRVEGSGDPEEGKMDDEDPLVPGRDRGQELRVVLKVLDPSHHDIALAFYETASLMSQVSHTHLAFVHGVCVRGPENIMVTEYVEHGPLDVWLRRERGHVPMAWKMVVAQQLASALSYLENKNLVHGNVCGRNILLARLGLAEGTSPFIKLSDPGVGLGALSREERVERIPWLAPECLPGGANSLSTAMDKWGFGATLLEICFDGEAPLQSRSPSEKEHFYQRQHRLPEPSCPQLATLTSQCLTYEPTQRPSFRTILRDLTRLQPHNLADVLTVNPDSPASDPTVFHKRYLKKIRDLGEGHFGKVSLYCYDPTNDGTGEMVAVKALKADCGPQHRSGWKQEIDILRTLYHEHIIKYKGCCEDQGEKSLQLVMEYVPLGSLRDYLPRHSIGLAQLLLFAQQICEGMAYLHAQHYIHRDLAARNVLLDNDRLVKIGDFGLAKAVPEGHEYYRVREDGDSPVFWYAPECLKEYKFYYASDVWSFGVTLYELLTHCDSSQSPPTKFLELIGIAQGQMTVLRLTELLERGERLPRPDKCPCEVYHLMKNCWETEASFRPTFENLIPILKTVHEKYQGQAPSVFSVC
Description: as §1, §2

JAK3 = target: T3, JAK3 (Homo sapiens, UniProt P52333); assay: Competition binding assay, JAK3
T3 construct: made in house
T3 sequence (P52333 1-1124): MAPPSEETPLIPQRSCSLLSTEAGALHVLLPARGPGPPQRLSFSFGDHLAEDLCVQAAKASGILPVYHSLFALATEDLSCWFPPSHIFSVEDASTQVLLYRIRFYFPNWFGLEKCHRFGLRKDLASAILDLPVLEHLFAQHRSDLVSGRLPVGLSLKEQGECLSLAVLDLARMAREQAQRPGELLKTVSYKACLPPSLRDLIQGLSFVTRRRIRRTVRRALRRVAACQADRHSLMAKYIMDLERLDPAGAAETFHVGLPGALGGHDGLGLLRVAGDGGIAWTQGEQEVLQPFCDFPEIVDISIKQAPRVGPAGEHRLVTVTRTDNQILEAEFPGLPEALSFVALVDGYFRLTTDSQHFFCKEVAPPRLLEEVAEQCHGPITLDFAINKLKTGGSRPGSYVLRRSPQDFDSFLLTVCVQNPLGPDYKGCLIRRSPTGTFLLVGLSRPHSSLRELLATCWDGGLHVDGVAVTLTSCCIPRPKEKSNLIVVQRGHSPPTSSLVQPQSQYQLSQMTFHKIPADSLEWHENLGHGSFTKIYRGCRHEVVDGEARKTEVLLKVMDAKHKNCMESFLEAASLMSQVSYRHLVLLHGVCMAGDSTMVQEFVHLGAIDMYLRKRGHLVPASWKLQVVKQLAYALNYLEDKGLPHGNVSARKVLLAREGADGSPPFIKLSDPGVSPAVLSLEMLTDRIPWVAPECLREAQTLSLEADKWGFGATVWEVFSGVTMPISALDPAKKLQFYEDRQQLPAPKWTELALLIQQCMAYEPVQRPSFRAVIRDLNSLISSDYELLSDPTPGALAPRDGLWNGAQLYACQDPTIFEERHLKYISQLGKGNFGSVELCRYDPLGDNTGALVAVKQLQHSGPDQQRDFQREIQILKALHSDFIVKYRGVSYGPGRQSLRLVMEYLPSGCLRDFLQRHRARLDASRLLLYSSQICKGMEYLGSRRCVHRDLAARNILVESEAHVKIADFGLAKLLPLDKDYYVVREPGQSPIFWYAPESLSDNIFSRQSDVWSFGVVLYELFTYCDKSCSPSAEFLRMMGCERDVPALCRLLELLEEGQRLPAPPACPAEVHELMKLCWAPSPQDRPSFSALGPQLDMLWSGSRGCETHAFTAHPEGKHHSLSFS
Description: as §1, §2

[1] = tested on: GM-CSFR/JAK2/STAT5 pathway in CSTF-1 cells; assay: CSTF-1 cell-based reporter assay (beta-lactamase, GM-CSF stimulated); set-up: species or system human; details: GM-CSF at 2 ng/mL, 4 hours, read-out: Cell Assay: CS TF-1 reporter assay IC50
Procedure: CSTF-1 Cell-Based Reporter Assay
CSTF-1 cells are derived from the human erythroleukemia cell line that is growth dependent on GM-CSF and has an intact GM-CSFR/JAK2/STAT5 pathway. The cell line contains stably integrated beta-lactamase reporter gene under the control of the […] (irf 1) response element recognized by the activated transcription factor STATS. csTF-1 cells (Invitrogen K1219) were washed with assay media (97% OPTIMEM/ 0.5% dialyzed FBS/0.1 mM NEAA/1 mM Na pyr/P/S) and seeded in the same media at 5×10^5 cell/mL in T150 flask. After 16 hour incubation, cells were seeded at 2×10^5 cell/well in 50 μl volume, into Costar, clear bottom, 96-well assay plates. Serial dilutions of compounds were added to the plates with final DMSO concentration at 0.5% and GM-CSF at 2 ng/mL and the plates were then incubated at […] and 5% CO2 for 4 hours. The plates were brought to room temperature before adding Substrate Mixture according to manufacturer's protocol (Invitrogen, Catalog #K1085). The assay plates containing the substrate mixture were incubated in the dark at room temperature for 2 hours. Blue and green fluorescence was measured with excitation at 409 nm and emission at 460 nm (for blue) and excitation at 409 nm and emission at 530 nm (for green) using Spectra Max Gemini EM.

[2] = tested on: distinct kinases tested excluding mutant variants, typically 359 or 386 kinases; assay: Kinase selectivity score from competition binding panel; details: compound at 10 μM; fraction of kinases with inhibition of 90% or greater
Procedure: as §2

T1 sequence (O60674 whole entry): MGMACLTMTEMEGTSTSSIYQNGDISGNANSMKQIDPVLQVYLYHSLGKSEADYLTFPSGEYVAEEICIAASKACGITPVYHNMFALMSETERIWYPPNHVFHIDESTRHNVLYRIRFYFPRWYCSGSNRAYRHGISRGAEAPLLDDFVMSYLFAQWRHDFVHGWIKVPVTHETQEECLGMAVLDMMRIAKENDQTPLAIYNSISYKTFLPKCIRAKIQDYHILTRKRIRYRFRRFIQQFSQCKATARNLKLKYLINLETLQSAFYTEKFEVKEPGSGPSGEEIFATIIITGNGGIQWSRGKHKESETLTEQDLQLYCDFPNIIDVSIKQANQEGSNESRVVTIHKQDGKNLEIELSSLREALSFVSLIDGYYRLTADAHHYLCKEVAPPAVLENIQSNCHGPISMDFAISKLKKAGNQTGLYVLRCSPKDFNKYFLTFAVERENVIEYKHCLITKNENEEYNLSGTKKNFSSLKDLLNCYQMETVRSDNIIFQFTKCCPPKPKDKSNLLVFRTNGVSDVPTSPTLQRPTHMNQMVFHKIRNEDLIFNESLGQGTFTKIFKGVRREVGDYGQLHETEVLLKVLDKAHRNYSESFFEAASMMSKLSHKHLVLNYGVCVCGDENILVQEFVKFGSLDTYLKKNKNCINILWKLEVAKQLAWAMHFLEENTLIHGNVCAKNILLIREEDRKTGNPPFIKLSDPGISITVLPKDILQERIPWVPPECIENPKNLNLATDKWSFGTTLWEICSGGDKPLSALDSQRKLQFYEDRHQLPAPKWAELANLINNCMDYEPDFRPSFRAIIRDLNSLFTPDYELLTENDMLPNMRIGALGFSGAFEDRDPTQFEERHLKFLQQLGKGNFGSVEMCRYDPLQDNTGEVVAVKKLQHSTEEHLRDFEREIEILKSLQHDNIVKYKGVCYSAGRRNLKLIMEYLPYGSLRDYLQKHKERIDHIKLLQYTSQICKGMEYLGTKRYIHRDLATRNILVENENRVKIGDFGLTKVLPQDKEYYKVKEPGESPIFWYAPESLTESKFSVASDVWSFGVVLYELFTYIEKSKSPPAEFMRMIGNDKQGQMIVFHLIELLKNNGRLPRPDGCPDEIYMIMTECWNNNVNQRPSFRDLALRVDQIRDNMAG

Molecule | Kd (JAK2) [nM] | Kd (TYK2) [nM] | Kd (JAK3) [nM] | IC50 ([1]; Homo sapiens) [nM] | S-Score: S(10) at 10 μM [2] | IC50 [1] [nM]
Cc1cc(Nc2nc(C(O)c3ccc(F)cc3)nc3cc(C(C)(C)C)sc23)n[nH]1 (stereo not drawn) [Example 27, (6-tert-butyl-4-(5-methyl-1H-pyrazol-3-ylamino)thieno[3,2-d]pyrimidin-2-yl)(4-fluorophenyl)methanol] | ≤ 1 | > 100 | 10 to 100 | 100 to 500 | A (A ≦ 0.3) | –
Cc1cc(Nc2nc(C(=O)c3ccc(F)cc3)nc3sccc23)n[nH]1 [Example 3, (4-fluorophenyl)(4-(5-methyl-1H-pyrazol-3-ylamino)thieno[2,3-d]pyrimidin-2-yl)methanone] | ≤ 1 | 10 to 100 | ≤ 10 | ≤ 100 | B (0.3 < B ≦ 0.4) | –
Cc1cc(Nc2nc(C(O)c3ccc(F)cc3)nc3cc(C)sc23)n[nH]1 (racemic) [Example 21, (R,S)-(4-fluorophenyl)(6-methyl-4-(5-methyl-1H-pyrazol-3-ylamino)thieno[3,2-d]pyrimidin-2-yl)methanol] | ≤ 1 | ≤ 10 | ≤ 10 | ≤ 100 | B (0.3 < B ≦ 0.4) | –
COC(c1ccc(F)cc1)c1nc(Nc2cc(C)[nH]n2)c2ccsc2n1 (racemic) [Example 9, (R,S)-2-((4-fluorophenyl)(methoxy)methyl)-N-(5-methyl-1H-pyrazol-3-yl)thieno[2,3-d]pyrimidin-4-amine] | ≤ 1 | ≤ 10 | 10 to 100 | 100 to 500 | A (A ≦ 0.3) | –
Cc1cc2c(Nc3cn(C)cn3)nc(C(O)c3ccc(F)cc3)nc2s1 (stereo not drawn) [Example 34, (4-fluorophenyl)(6-methyl-4-(1-methyl-1H-imidazol-4-ylamino)thieno[2,3-d]pyrimidin-2-yl)methanol] | ≤ 1 | – | > 100 | 100 to 500 | A (A ≦ 0.3) | –
Cc1cc(Nc2nc(C(C)(O)c3ccc(F)cc3)nc3ccsc23)n[nH]1 (racemic) [Example 18, (R,S)-1-(4-fluorophenyl)-1-(4-(5-methyl-1H-pyrazol-3-ylamino)thieno[3,2-d]pyrimidin-2-yl)ethanol] | ≤ 1 | ≤ 10 | ≤ 10 | ≤ 100 | – | –
Cc1csc2nc(C(O)c3ccc(F)cc3)nc(Nc3cc[nH]n3)c12 (racemic) [Example 13, (R,S)-(4-(1H-pyrazol-3-ylamino)-5-methylthieno[2,3-d]pyrimidin-2-yl)(4-fluorophenyl)methanol] | > 10 | > 100 | > 100 | > 500 | A (A ≦ 0.3) | –
Cc1csc2nc(C(=O)c3ccc(F)cc3)nc(Nc3cc[nH]n3)c12 [Example 12, (4-(1H-pyrazol-3-ylamino)-5-methylthieno[2,3-d]pyrimidin-2-yl)(4-fluorophenyl)methanone] | > 10 | > 100 | > 100 | > 500 | A (A ≦ 0.3) | –
Cc1cc(Nc2nc(C(O)c3ccc(F)cc3)nc3cscc23)n[nH]1 (racemic) [Example 32, (R,S)-(4-fluorophenyl)(4-(5-methyl-1H-pyrazol-3-ylamino)thieno[3,4-d]pyrimidin-2-yl)methanol] | ≤ 1 | ≤ 10 | ≤ 10 | ≤ 100 | B (0.3 < B ≦ 0.4) | –
Cc1cc(Nc2nc(C(=O)c3ccc(F)cc3)nc3ccsc23)n[nH]1 [Example 5, (4-fluorophenyl)(4-(5-methyl-1H-pyrazol-3-ylamino)thieno[3,2-d]pyrimidin-2-yl)methanone] | ≤ 1 | 10 to 100 | ≤ 10 | ≤ 100 | A (A ≦ 0.3) | –
Cc1cc(Nc2nc(C(O)c3ccc(F)cc3)nc3c(C)csc23)n[nH]1 (stereo not drawn) [Example 23, (4-fluorophenyl)(7-methyl-4-(5-methyl-1H-pyrazol-3-ylamino)thieno[3,2-d]pyrimidin-2-yl)methanol] | ≤ 1 | ≤ 10 | 10 to 100 | 100 to 500 | A (A ≦ 0.3) | –
Cc1cc(Nc2nc(C(O)c3ccc(F)cc3)nc3scc(C)c23)n[nH]1 (racemic) [Example 11, (R,S)-(4-Fluorophenyl)(5-methyl-4-(5-methyl-1H-pyrazol-3-ylamino)thieno[2,3-d]pyrimidin-2-yl)methanol] | > 10 | > 100 | > 100 | > 500 | A (A ≦ 0.3) | –
COC(c1ccc(F)cc1)c1nc(Nc2cc(C)[nH]n2)c2sccc2n1 (stereo not drawn) [Example 19, 2-((4-fluorophenyl)(methoxy)methyl)-N-(5-methyl-1H-pyrazol-3-yl)thieno[3,2-d]pyrimidin-4-amine] | 1 to 10 | 10 to 100 | 10 to 100 | 100 to 500 | A (A ≦ 0.3) | –
(4-(1H-pyrazol-3-ylamino)-7-methylthieno[3,2-d]pyrimidin-2-yl)(4-fluorophenyl)methanone [Example 24] | 1 to 10 | > 100 | > 100 | – | A (A ≦ 0.3) | > 500
Cc1csc2c(Nc3cc[nH]n3)nc(C(O)c3ccc(F)cc3)nc12 (stereo not drawn) [Example 25, (4-(1H-Pyrazol-3-ylamino)-7-methylthieno[3,2-d]pyrimidin-2-yl)(4-fluorophenyl)methanol] | 1 to 10 | ≤ 10 | 10 to 100 | 100 to 500 | – | –
